Laboratory results from patent US9695155B2, “Herbicidal substituted pyrimidinyloxy benzene compounds” (E. I. DU PONT DE NEMOURS AND COMPANY, priority 2013, dated 2017).
Where two headings read alike, the source gives them in different places.

Tests used:
[1] = test system: wheat, winter; assay: Test C preemergence; assay type: in vivo, Triticum aestivum; details: Triticum aestivum, pre-emergence; for plant injury at 62 g/ha: 62 g ai/ha; for plant injury at 125 g/ha: 125 g ai/ha
Outline: (§1)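 Sown in loam/sand → sprayed pre-emergence; or grown to 1–4 leaves in peat mix → sprayed post-emergence. Same solvent/surfactant formulation both ways. Greenhouse 13–15 d. Score 0–100 visual.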

[2] = test system: ragweed; assay: Test C preemergence; assay type: in vivo, Ambrosia elatior; details: Ambrosia artemisiifolia, pre-emergence; for pest or weed control at 62 g/ha: 62 g ai/ha; for pest or weed control at 125 g/ha: 125 g ai/ha
Outline: as §1

[3] = test system: waterhemp_RES1 (ALS & Triazine resistant common waterhemp); assay: Test E postemergence; assay type: in vivo, Amaranthus rudis
Outline: (§2)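 Compound in a non-phytotoxic solvent mixture with surfactant was applied preemergence to seeds in silt loam soil, or postemergence to plants 2 to 18 cm tall grown in peat-based potting medium. Plants were kept in a greenhouse for 14 to 21 days, then rated visually against untreated controls on a 0 (no effect) to 100 (complete control) scale.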

[4] = test system: waterhemp_RES2 (ALS & HPPD resistant common waterhemp); assay: Test E postemergence; assay type: in vivo, Amaranthus rudis; details: for pest or weed control at 31 g/ha / pest or weed control at 62 g/ha / pest or weed control at 125 g/ha / pest or weed control at 16 g/ha: Amaranthus tuberculatus, post-emergence, read-out: Plant response rating, Waterhemp_RES2
Outline: as §2

[5] = test system: waterhemp; assay: Test E postemergence; assay type: in vivo, Amaranthus rudis
Outline: as §2

[6] = test system: fall panicum; assay: Test E postemergence; assay type: in vivo, Panicum dichotomiflorum
Outline: as §2

[7] = test system: sandbur; assay: Test E postemergence; assay type: in vivo, Cenchrus echinatus
Outline: as §2

[8] = test system: arrowleaf sida; assay: Test E postemergence; assay type: in vivo, Sida rhombifolia
Outline: as §2

[9] = preemergence, scale 0 (no effect) to 100 (complete control), read-out: Wheat plant response rating
[10] = preemergence, scale 0 (no effect) to 100 (complete control), read-out: Ragweed plant response rating
[11] = Postemergence, 31 g ai/ha, scale 0 to 100
[12] = Postemergence, 62 g ai/ha, scale 0 to 100
[13] = Postemergence, 125 g ai/ha, scale 0 to 100
[14] = postemergence, 16 g ai/ha, scale 0 to 100, 0 no effect, 100 complete control
[15] = Amaranthus tuberculatus, post-emergence, Postemergence, 31 g ai/ha, scale 0 to 100, read-out: Plant response rating, Waterhemp
[16] = Amaranthus tuberculatus, post-emergence, Postemergence, 62 g ai/ha, scale 0 to 100, read-out: Plant response rating, Waterhemp
[17] = Amaranthus tuberculatus, post-emergence, Postemergence, 125 g ai/ha, scale 0 to 100, read-out: Plant response rating, Waterhemp
[18] = Amaranthus tuberculatus, post-emergence, postemergence, 16 g ai/ha, scale 0 to 100, 0 no effect, 100 complete control, read-out: Plant response rating, Waterhemp
[19] = Panicum dichotomiflorum, post-emergence, Postemergence, 31 g ai/ha, scale 0 to 100, read-out: Plant response rating, Panicum, Fall
[20] = Panicum dichotomiflorum, post-emergence, Postemergence, 62 g ai/ha, scale 0 to 100, read-out: Plant response rating, Panicum, Fall
[21] = Panicum dichotomiflorum, post-emergence, Postemergence, 125 g ai/ha, scale 0 to 100, read-out: Plant response rating, Panicum, Fall
[22] = Panicum dichotomiflorum, post-emergence, postemergence, 16 g ai/ha, scale 0 to 100, 0 no effect, 100 complete control, read-out: Plant response rating, Panicum, Fall
[23] = Cenchrus echinatus, post-emergence, Postemergence, 31 g ai/ha, scale 0 to 100, read-out: Plant response rating, Sandbur
[24] = Cenchrus echinatus, post-emergence, Postemergence, 62 g ai/ha, scale 0 to 100, read-out: Plant response rating, Sandbur
[25] = Cenchrus echinatus, post-emergence, Postemergence, 125 g ai/ha, scale 0 to 100, read-out: Plant response rating, Sandbur
[26] = Cenchrus echinatus, post-emergence, postemergence, 16 g ai/ha, scale 0 to 100, 0 no effect, 100 complete control, read-out: Plant response rating, Sandbur
[27] = Sida rhombifolia, post-emergence, Postemergence, 31 g ai/ha, scale 0 to 100, read-out: Plant response rating, Arrowleaf Sida
[28] = Sida rhombifolia, post-emergence, Postemergence, 62 g ai/ha, scale 0 to 100, read-out: Plant response rating, Arrowleaf Sida
[29] = Sida rhombifolia, post-emergence, Postemergence, 125 g ai/ha, scale 0 to 100, read-out: Plant response rating, Arrowleaf Sida
[30] = Sida rhombifolia, post-emergence, postemergence, 16 g ai/ha, scale 0 to 100, 0 no effect, 100 complete control, read-out: Plant response rating, Arrowleaf Sida
[31] = postemergence, 8 g ai/ha, scale 0 to 100, 0 no effect, 100 complete control

N#Cc1cccc(Oc2ncc(F)cn2)c1-n1cc(C(F)(F)F)cn1 [Compound 79, 3-[(5-fluoro-2-pyrimidinyl)oxy]-2-[4-(trifluoromethyl)-1H-pyrazol-1-yl]benzonitrile]
plant injury at 62 g/ha [1, 9]: 35%
plant injury at 125 g/ha [1, 9]: 85%
plant injury at 250 g/ha ([1]; 250 g ai/ha, preemergence, scale 0 (no effect) to 100 (complete control), read-out: Wheat plant response rating): 90%
plant injury at 31 g/ha ([1]; Preemergence, 31 g ai/ha, scale 0 to 100, 0 no effect, 100 complete control, read-out: Plant response rating, Wheat): 10%
pest or weed control at 62 g/ha [2, 10]: 90%
pest or weed control at 125 g/ha [2, 10]: 90%
pest or weed control at 250 g/ha ([2]; 250 g ai/ha, preemergence, scale 0 (no effect) to 100 (complete control), read-out: Ragweed plant response rating): 90%
pest or weed control at 31 g/ha ([2]; Preemergence, 31 g ai/ha, scale 0 to 100, 0 no effect, 100 complete control, read-out: Plant response rating, Ragweed): 90%
Plant response rating, Waterhemp_RES1 [3, 11]: 60
Plant response rating, Waterhemp_RES1 [3, 12]: 75
Plant response rating, Waterhemp_RES1 [3, 13]: 100
Plant response rating, Waterhemp_RES1 [3, 14]: 40
pest or weed control at 31 g/ha [4, 11]: 80%
pest or weed control at 62 g/ha [4, 12]: 90%
pest or weed control at 125 g/ha [4, 13]: 95%
pest or weed control at 16 g/ha [4, 14]: 75%
pest or weed control at 31 g/ha [5, 15]: 90%
pest or weed control at 62 g/ha [5, 16]: 85%
pest or weed control at 125 g/ha [5, 17]: 100%
pest or weed control at 16 g/ha [5, 18]: 70%
pest or weed control at 31 g/ha [6, 19]: 35%
pest or weed control at 62 g/ha [6, 20]: 30%
pest or weed control at 125 g/ha [6, 21]: 30%
pest or weed control at 16 g/ha [6, 22]: 20%
pest or weed control at 31 g/ha [7, 23]: 0%
pest or weed control at 62 g/ha [7, 24]: 0%
pest or weed control at 125 g/ha [7, 25]: 10%
pest or weed control at 16 g/ha [7, 26]: 0%
pest or weed control at 31 g/ha [8, 27]: 75%
pest or weed control at 62 g/ha [8, 28]: 85%
pest or weed control at 125 g/ha [8, 29]: 98%
pest or weed control at 16 g/ha [8, 30]: 65%

Clc1cnc(Oc2ccccc2-n2cc(Br)nn2)nc1 [Compound 223]
Plant response rating, Waterhemp_RES1 [3, 11]: 80
Plant response rating, Waterhemp_RES1 [3, 12]: 70
Plant response rating, Waterhemp_RES1 [3, 13]: 95
Plant response rating, Waterhemp_RES1 [3, 31]: 30
Plant response rating, Waterhemp_RES1 [3, 14]: 60
Plant response rating, Waterhemp_RES2 [4, 11]: 80
Plant response rating, Waterhemp_RES2 [4, 12]: 80
Plant response rating, Waterhemp_RES2 [4, 13]: 95
Plant response rating, Waterhemp_RES2 [4, 14]: 75
Plant response rating, Waterhemp [5, 11]: 70
Plant response rating, Waterhemp [5, 12]: 85
Plant response rating, Waterhemp [5, 13]: 98
Plant response rating, Waterhemp [5, 31]: 60
Plant response rating, Waterhemp [5, 14]: 50
Plant response rating, Panicum, Fall [6, 11]: 0
Plant response rating, Panicum, Fall [6, 12]: 0
Plant response rating, Panicum, Fall [6, 13]: 0
Plant response rating, Panicum, Fall [6, 31]: 0
Plant response rating, Panicum, Fall [6, 14]: 0
Plant response rating, Sandbur [7, 11]: 0
Plant response rating, Sandbur [7, 12]: 0
Plant response rating, Sandbur [7, 13]: 0
Plant response rating, Sandbur [7, 31]: 0
Plant response rating, Sandbur [7, 14]: 0
Plant response rating, Arrowleaf Sida [8, 11]: 70
Plant response rating, Arrowleaf Sida [8, 12]: 80
Plant response rating, Arrowleaf Sida [8, 13]: 90
Plant response rating, Arrowleaf Sida [8, 31]: 50
Plant response rating, Arrowleaf Sida [8, 14]: 60

N#Cc1cccc(Oc2ncc(Cl)cn2)c1-n1cc(OCC(F)(F)F)cn1 [Compound 274, 3-[(5-chloro-2-pyrimidinyl)oxy]-2-[4-(2,2,2-trifluoroethoxy)-1H-pyrazol-1-yl]benzonitrile]
plant injury at 16 g/ha ([1]; 16 g ai/ha, preemergence, scale 0 to 100 (0 no effect, 100 complete control), read-out: Wheat plant response rating): 20%
plant injury at 125 g/ha [1, 9]: 90%
plant injury at 62 g/ha ([1]; Preemergence, scale 0 to 100, 0 no effect, 100 complete control, read-out: Plant response rating, Wheat): 90%
pest or weed control at 16 g/ha ([2]; 16 g ai/ha, preemergence, scale 0 to 100 (0 no effect, 100 complete control), read-out: Ragweed plant response rating): 10%
pest or weed control at 125 g/ha [2, 10]: 75%
pest or weed control at 62 g/ha ([2]; Preemergence, scale 0 to 100, 0 no effect, 100 complete control, read-out: Plant response rating, Ragweed): 35%
Plant response rating, Waterhemp_RES1 [3, 11]: 80
Plant response rating, Waterhemp_RES1 [3, 12]: 90
Plant response rating, Waterhemp_RES1 [3, 13]: 100
Plant response rating, Waterhemp_RES1 [3, 31]: 60
Plant response rating, Waterhemp_RES1 [3, 14]: 75
pest or weed control at 31 g/ha [4, 11]: 85%
pest or weed control at 62 g/ha [4, 12]: 95%
pest or weed control at 125 g/ha [4, 13]: 100%
pest or weed control at 16 g/ha [4, 14]: 80%
pest or weed control at 31 g/ha [5, 15]: 90%
pest or weed control at 62 g/ha [5, 16]: 95%
pest or weed control at 125 g/ha [5, 17]: 98%
pest or weed control at 8 g/ha ([5]; Amaranthus tuberculatus, post-emergence, postemergence, 8 g ai/ha, scale 0 to 100, 0 no effect, 100 complete control, read-out: Plant response rating, Waterhemp): 70%
pest or weed control at 16 g/ha [5, 18]: 95%
pest or weed control at 31 g/ha [6, 19]: 20%
pest or weed control at 62 g/ha [6, 20]: 50%
pest or weed control at 125 g/ha [6, 21]: 20%
pest or weed control at 8 g/ha ([6]; Panicum dichotomiflorum, post-emergence, postemergence, 8 g ai/ha, scale 0 to 100, 0 no effect, 100 complete control, read-out: Plant response rating, Panicum, Fall): 10%
pest or weed control at 16 g/ha [6, 22]: 15%
pest or weed control at 31 g/ha [7, 23]: 10%
pest or weed control at 62 g/ha [7, 24]: 15%
pest or weed control at 125 g/ha [7, 25]: 0%
pest or weed control at 8 g/ha ([7]; Cenchrus echinatus, post-emergence, postemergence, 8 g ai/ha, scale 0 to 100, 0 no effect, 100 complete control, read-out: Plant response rating, Sandbur): 0%
pest or weed control at 16 g/ha [7, 26]: 0%
pest or weed control at 31 g/ha [8, 27]: 60%
pest or weed control at 62 g/ha [8, 28]: 75%
pest or weed control at 125 g/ha [8, 29]: 85%
pest or weed control at 8 g/ha ([8]; Sida rhombifolia, post-emergence, postemergence, 8 g ai/ha, scale 0 to 100, 0 no effect, 100 complete control, read-out: Plant response rating, Arrowleaf Sida): 55%
pest or weed control at 16 g/ha [8, 30]: 75%
